Results taken from patent publication US20100063466A1, “ABSORBENT ARTICLE” (SCA Hygiene Products AB, priority 2006, published 2010).

Key:
[1] = Measurement of water activity of salt solutions; format: physicochemical; settings: different concentrations of salt in Elga-H2O; FIG. 8
Protocol: Water activity is measured as follows. The water activity meter is from Aqua Lab, Model Series 3 TE, […]. (U.S. Pat. No. 5,816,704). A specimen, a solution with different additions of different salts in Elga-H2O or synthetic urine, test liquid 2. was placed in a plastic cup. The quantity is not critical, but it is important that the bottom surface of the plastic cup is covered. The specimen is moved into the test chamber, which is closed, and the measurement commences. When the test value is stable, a green light flashes and the water activity can be read off digitally. The salts that were tested were: NaCl, KCl, NH4Cl, KC2H3O2 (K acetate), Na C2H3O2 (Na acetate).
The water activity was measured in Elga-H2O (USF Elga, distilled water) and synthetic urine, test liquid 2.
The water activity was measured according to method 4, but with different concentrations of salt in Elga-H2O.

E. coli = settings: FIG. 4
Description: (§1) Absorbent test specimens were punched out from an absorbent core produced in a test plant. A standard method for mat-forming of a core was used during production of the core in the test plant. The absorbent test specimen included a homogeneous mixture of fluff pulp, 0.72 g Weyerhauser pulp (NB 416) and 0.48 g of superabsorbent polymer (SAP) (Degussa SXM9135). The absorbent core, was compressed to a bulk of around 8-10 cm^3/g. The size of the punched-out test items was 5 cm in diameter, the weight was about 1.2 g.
(§2) 16 ml (corresponding to a maximum absorption capacity of a test specimen according to method 1) of test liquid 1 containing the bacteria were added to a test specimen placed in plastic tubs, and a lid was fitted on the tubs. The tubs were turned upside down and incubated in a warm cabinet at 35° C. After incubation for 0, 6 and 12 hours, the test samples were placed in a plastic bag with peptone water and the content was homogenized (agitated and worked up) in a stomacker for 3 minutes. The homogenate was diluted in dilution tubes with peptone water and a microbiological culture was spread on agar plates. Slanetz Bartley agar was used for E. faecalis, and Drigalski agar for E. coli and P. mirabilis. The specimens were incubated at 35° C. for 1-2 days before the colonies were counted and the log CFU/ml calculated. Control tests were also carried out with absorbent cores without NaCl.
(§3) Bacteria were cultured in nutrient broth and diluted to the desired concentration of about Log 3.3 in test liquid 1 (method 4). Absorbent test specimens were produced according to method 1. 29 (high), 22 (medium) and 12 (low) % by weight NaCl (% dry) were added to the core, corresponding to 3 (high), 2 (medium) and 1 (low) % by weight (% wet) in the wet product. This proportion also applies to the other examples. The bacterial growth was measured according to method 3.

E. faecalis = settings: FIG. 4
Description: as §1, §2, §3

P. mirabilis = settings: FIG. 4
Description: as §1, §2, §3

Proteus mirabilis = settings: 29% by weight of NaCl (% dry); after 6 and 8 hours; FIG. 5
Description: as §1
(§4) Absorbent test specimens were produced according to method 1.
as §4

[2] = 3% added salt (% wet), NaCl high, after 12 hours, 35° C, test liquid 1
[3] = 29, 22 and 12 % by weight NaCl (% dry), after 6 and 12 hours

Row | water activity as the concentrations of salt increase [1] | Structure (SMILES) | growth of E. coli (E. coli; [2]) [log CFU/ml] | growth of E. coli compared with the control tests (E. coli; [3]) | growth of E. faecalis (E. faecalis; [2]) [log CFU/ml] | growth of E. faecalis compared with the control tests (E. faecalis; [3]) | growth of P. mirabilis (P. mirabilis; [2]) [log CFU/ml] | growth of P. mirabilis compared with the control tests (P. mirabilis; [3]) | development of NH3, ranking among specimens (Proteus mirabilis)
1 | drops | Cl.N [NH4Cl] | – | – | – | – | – | – | –
2 | drops | CC(=O)[O-].[Na+] [Na acetate] | – | – | – | – | – | – | –

Row | Structure (SMILES) | water activity as the concentrations of salt increase [1] | growth of E. coli (E. coli; [2]) [log CFU/ml] | growth of E. coli compared with the control tests (E. coli; [3]) | growth of E. faecalis (E. faecalis; [2]) [log CFU/ml] | growth of E. faecalis compared with the control tests (E. faecalis; [3]) | growth of P. mirabilis (P. mirabilis; [2]) [log CFU/ml] | growth of P. mirabilis compared with the control tests (P. mirabilis; [3]) | development of NH3, ranking among specimens (Proteus mirabilis)
3 | [Cl-].[Na+] [NaCl] | drops | < 5.5 | lower | < 5.5 | lower | < 5.5 | lower | lowest
